The numbers were not newly measured in US8535699B2, “Insect-repelling resin composition and extended-release insect-repelling resin molded product obtained therefrom” (Sumika Life Tech, Limited, priority 2009, dated 2013), which cites them from elsewhere.

The conditions of this data set: at 20° C.

`CCOP(=O)(OCC)OCC` [Triethyl phosphate]: the Vapour pressure is 0.3 mmHg.

For the molecule `CC(C)=CC1C(C(=O)OCc2cccc(Oc3ccccc3)c2)C1(C)C` (centres unmarked) [Phenothrin], the Vapour pressure is listed as 1.2×10^−6 mmHg.
